Data: patent publication US20260216207A1, “7-CARBONYLSTAUROSPORINE DERIVATIVE, PREPARATION METHOD THEREFOR, AND USE THEREOF” (HANGZHOU KEXING BIOCHEM. CO., LTD., priority 2023, published 2026)

What was measured:
Assay type in all cases: biochemical
PAK4 = PAK4 (Homo sapiens, UniProt O96013); test: HTRF KinEASE kinase assay, PAK4 (kinase selectivity); details: HTRF KinEASE kit, 3 duplicate wells; read-out: PAK4 IC50
Experimental: (§1) Inhibitory activities against PIM-1, TRKA, TRKB, FLT3, PKCδ, PKCε, PKCη, PAK4, PLK1, ROCK2, and IKKβ kinases were all determined using an HTRF®KinEASE™ kinase assay kit based on a time-resolved fluorescence technology. 7-carbonylstaurosporine (7OSTA) and TP-3654 were used as positive controls, and 3 duplicate wells were set in parallel. […] A signal ratio was calculated as F2/F1×10000, and then an IC50 value was calculated using Graphpad Prism 8 software.

TRKB = TRKB (Homo sapiens, UniProt Q16620); test: HTRF KinEASE kinase assay, TRKB (kinase selectivity); details: HTRF KinEASE kit, 3 duplicate wells; read-out: TRKB IC50
TRKB, sequence (Q16620 32-822, species assumed): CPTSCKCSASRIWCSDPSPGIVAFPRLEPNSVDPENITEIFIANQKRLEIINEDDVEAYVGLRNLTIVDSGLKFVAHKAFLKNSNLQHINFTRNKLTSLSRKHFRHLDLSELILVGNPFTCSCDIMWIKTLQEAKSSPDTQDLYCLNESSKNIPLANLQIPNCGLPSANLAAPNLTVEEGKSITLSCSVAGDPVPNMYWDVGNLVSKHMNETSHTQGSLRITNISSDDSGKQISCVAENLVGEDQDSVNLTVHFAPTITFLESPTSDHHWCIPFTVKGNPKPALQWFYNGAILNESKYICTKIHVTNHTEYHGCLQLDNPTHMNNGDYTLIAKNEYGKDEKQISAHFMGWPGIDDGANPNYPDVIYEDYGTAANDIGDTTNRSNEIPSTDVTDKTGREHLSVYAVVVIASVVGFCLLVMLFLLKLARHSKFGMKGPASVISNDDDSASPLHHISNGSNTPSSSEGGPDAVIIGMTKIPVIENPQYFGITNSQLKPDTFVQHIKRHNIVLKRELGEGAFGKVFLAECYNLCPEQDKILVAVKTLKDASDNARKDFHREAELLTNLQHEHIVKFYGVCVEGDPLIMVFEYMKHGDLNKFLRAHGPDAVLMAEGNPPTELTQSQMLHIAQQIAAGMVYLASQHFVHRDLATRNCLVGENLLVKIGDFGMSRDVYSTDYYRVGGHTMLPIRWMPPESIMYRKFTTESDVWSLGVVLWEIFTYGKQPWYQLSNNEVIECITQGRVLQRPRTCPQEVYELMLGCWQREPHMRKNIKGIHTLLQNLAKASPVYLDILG
Experimental: as §1

IKKβ = target: T1, IKKβ (Homo sapiens, UniProt O14920); test: HTRF KinEASE kinase assay, IKKβ (kinase selectivity); details: HTRF KinEASE kit, 3 duplicate wells; read-out: IKKβ IC50
T1 sequence (O14920 1-756): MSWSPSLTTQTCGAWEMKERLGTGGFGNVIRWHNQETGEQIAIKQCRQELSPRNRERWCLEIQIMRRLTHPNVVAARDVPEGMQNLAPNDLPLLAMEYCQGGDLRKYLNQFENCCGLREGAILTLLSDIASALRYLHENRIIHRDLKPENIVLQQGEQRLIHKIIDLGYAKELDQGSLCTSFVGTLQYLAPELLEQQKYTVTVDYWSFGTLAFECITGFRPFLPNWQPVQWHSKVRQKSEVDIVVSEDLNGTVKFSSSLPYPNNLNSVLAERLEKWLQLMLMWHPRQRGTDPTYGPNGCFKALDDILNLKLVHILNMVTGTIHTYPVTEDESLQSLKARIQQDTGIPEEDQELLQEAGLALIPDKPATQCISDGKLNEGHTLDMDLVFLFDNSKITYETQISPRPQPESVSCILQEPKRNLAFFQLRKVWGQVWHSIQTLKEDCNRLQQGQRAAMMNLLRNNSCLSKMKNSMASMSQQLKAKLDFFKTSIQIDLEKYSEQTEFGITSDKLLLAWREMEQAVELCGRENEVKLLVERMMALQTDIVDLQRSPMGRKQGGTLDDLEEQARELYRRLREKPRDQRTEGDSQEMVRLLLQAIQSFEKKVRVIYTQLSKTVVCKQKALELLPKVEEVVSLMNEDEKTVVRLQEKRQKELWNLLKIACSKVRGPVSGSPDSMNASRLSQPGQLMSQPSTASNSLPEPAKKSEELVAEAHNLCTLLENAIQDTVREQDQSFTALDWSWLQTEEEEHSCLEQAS
Experimental: as §1

PAK4, sequence (O96013 whole entry, species assumed): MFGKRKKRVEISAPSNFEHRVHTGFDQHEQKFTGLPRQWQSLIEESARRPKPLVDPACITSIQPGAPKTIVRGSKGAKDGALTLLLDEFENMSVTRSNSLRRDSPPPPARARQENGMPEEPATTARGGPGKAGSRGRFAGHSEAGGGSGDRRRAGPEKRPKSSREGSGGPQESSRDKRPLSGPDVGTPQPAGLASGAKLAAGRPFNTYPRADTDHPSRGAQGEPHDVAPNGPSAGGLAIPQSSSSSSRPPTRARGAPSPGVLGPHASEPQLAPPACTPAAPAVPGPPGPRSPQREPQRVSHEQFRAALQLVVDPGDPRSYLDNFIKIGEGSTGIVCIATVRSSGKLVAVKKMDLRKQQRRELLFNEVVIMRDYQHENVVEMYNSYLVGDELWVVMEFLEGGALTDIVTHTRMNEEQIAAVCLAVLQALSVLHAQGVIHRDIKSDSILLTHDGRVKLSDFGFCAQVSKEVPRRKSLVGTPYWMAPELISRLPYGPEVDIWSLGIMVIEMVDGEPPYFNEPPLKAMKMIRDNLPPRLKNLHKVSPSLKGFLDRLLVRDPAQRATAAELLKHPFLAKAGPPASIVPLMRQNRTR

SMILES: CO[C@@H]1[C@H](N(C)C(=O)CCC(=O)NO)C[C@H]2O[C@]1(C)n1c3ccccc3c3c4c(c5c6ccccc6n2c5c31)C(=O)NC4=O [Compound 17]
- IC50 (PAK4): 0.24 µM
- IC50 (TRKB): 0.0136 µM
- IC50 (IKKβ): > 1 µM
